Results: patent publication US12421260B2, “Neurokinin-1 antagonist” (SHANGHAI SHENGDI PHARMACEUTICAL CO., LTD, priority 2019, dated 2025)
≈ marks a conversion by molar mass, not a printed value.

How the values were obtained:
[1] = Chemical stability of the compounds (Test Example 1); type: physicochemical; settings: purity loss after placing for 7 days; 4° C. and room temperature
Protocol: 2.1 Test of Stability of the Compounds
About 1 mg of sample was weighed into a vial, then the vial was placed in a vacuum bag and the bag was vacuumized. Then the bag was put into a container containing color-changing silica gel and sealed. Two parallel samples were prepared. Enough samples were prepared according to the sampling time point and placed at 4° C. and room temperature respectively.

[2] = Water solubility (Test Example 1); type: physicochemical; settings: for solubility: aqueous buffer, thermodynamic from solid
Protocol: 1.1. Preparation of Reagents
The 100 mL strength reagents were prepared as follows:
pH=3.0: phosphate buffer solution: 100 ml of 20 mmol/L NaH2PO4, 0.1M H3PO4, adjusting pH to 3.0.
pH=4.0: phosphate buffer solution: 100 ml of 20 mmol/L NaH2PO4, 0.1M H3PO4, adjusting pH to 4.0. […]
An appropriate amount of test compound was accurately weighed. The solution was added at a small amount each time for several times and stirred until the compound was dissolved, and the content of the compound in the solution was determined.

[3] = Plasma stability test (Test Example 3); type: in vitro ADME; settings: human plasma; for plasma concentration of the compound of the examples / plasma concentration of rolapitant after metabolism of the compound of the examples: 37° C.; for stability and metabolism to rolapitant in plasma (in words): up to 180 min
Protocol: The compounds of Example 4, Example 6, Example 10 and Example 11.
Human fresh plasma was donated by volunteers with informed consent.
1) The test compounds in Table 3 were respectively prepared into 30 mM stock solutions with DMSO for later use.
2) The 30 mM stock solution was diluted with DMSO solution to solution I at a concentration of 1600 μM. Then the 1600 μM solution I was diluted with acetonitrile (ACN) to a working solution II at a concentration of 16 μM.
3) 7 time points of 0, 15, 30, 60, 90, 120 and 180 min were set in the experiment with two parallel samples for each time point. Two sample groups were set for each compound. 75 μL plasma and 5 μL of the above prepared working solution II with a concentration of 16 μM were added to each group. The reaction system was incubated at 37° C. until the preset time when the reaction was stopped by 300 μL of the ACN solution containing the internal standard. The reaction mixture was centrifuged at 3700 rpm for 10 min, and the supernatant was collected for analysis.
4) Preparation of the standard curve: the previously diluted 1600 μM solution I was diluted with acetonitrile to 1.5 μM/mL solution III as the standard curve for later use. The standard curve concentration was set to […]. After dilution of each concentration of the standard curve, 75 μL plasma was added to 5 μL of each concentration point at a final concentration of 0.02, 0.05, 0.1, 0.25, 0.75, 1.0 and 1.5 uM, respectively. 300 μL stop solution was then added to the samples quickly which was then centrifuged at 3700 rpm for 10 min, and the supernatant was collected for LC-MSMS analysis.

SMILES	Chemical stability [1]	plasma concentration of the compound of the examples ([3]; 0 min) [nM]	plasma concentration of the compound of the examples ([3]; 15 min) [nM]	plasma concentration of the compound of the examples ([3]; 30 min) [nM]	plasma concentration of the compound of the examples ([3]; 60 min) [nM]	plasma concentration of the compound of the examples ([3]; 90 min) [nM]	plasma concentration of the compound of the examples ([3]; 120 min) [nM]	plasma concentration of the compound of the examples ([3]; 180 min) [nM]	stability and metabolism to rolapitant in plasma (in words) [3]	further results
CC(C)[C@@H](N)C(=O)OCOC(=O)N1C[C@@]2(CCC(=O)N2)CC[C@@]1(CO[C@H](C)c1cc(C(F)(F)F)cc(C(F)(F)F)c1)c1ccccc1.O=C(O)C(F)(F)F [Example 18]	Good (purity reduced by <0.5% after placing for 7 days)									Water solubility ([2]; PH = 4): 2.62 mg/mL (PH = 4) mg/ml
C[C@@H](OC[C@@]1(c2ccccc2)CC[C@]2(CCC(=O)N2)CN1C(=O)OCCN1CCN(C)CC1)c1cc(C(F)(F)F)cc(C(F)(F)F)c1 [Example 4]	Good (purity reduced by <0.5% after placing for 7 days)	1160	980	990	1000	970	810	780	relatively stable in plasma	solubility ([2]; phosphate buffer, PH = 3): 2080 µg/mL (≈ 3100 µM)
CC(C)[C@H](N)C(=O)OCCCOC(=O)N1C[C@@]2(CCC(=O)N2)CC[C@@]1(CO[C@H](C)c1cc(C(F)(F)F)cc(C(F)(F)F)c1)c1ccccc1.O=C(O)C(F)(F)F [Example 10]		1040	920	970	960	930	950	880	relatively stable in plasma	plasma concentration of rolapitant after metabolism of the compound of the examples ([3]; 0 min): 0 nM; plasma concentration of rolapitant after metabolism of the compound of the examples ([3]; 15 min): 0 nM; plasma concentration of rolapitant after metabolism of the compound of the examples ([3]; 30 min): 0 nM; plasma concentration of rolapitant after metabolism of the compound of the examples ([3]; 60 min): 0 nM; plasma concentration of rolapitant after metabolism of the compound of the examples ([3]; 90 min): 0 nM; plasma concentration of rolapitant after metabolism of the compound of the examples ([3]; 120 min): 0 nM; plasma concentration of rolapitant after metabolism of the compound of the examples ([3]; 180 min): 0 nM; Water solubility ([2]; PH = 3): 1.86 mg/mL(PH = 3) mg/ml
Cc1oc(=O)oc1CN1C(=O)CC[C@]12CC[C@@](CO[C@H](C)c1cc(C(F)(F)F)cc(C(F)(F)F)c1)(c1ccccc1)NC2 [Example 3]	Good (purity reduced by <0.5% after placing for 7 days)									solubility ([2]; PH = 5): < 100 µg/mL
C[C@@H](OC[C@@]1(c2ccccc2)CC[C@]2(CCC(=O)N2)CN1C(=O)OCOC(=O)[C@@H](N)CCCCN)c1cc(C(F)(F)F)cc(C(F)(F)F)c1 [Example 17]	Moderate (purity reduced by 0.5%~2.0% after placing for 7 days)									
CC(C)[C@H](N)C(=O)OCCOC(=O)N1C[C@@]2(CCC(=O)N2)CC[C@@]1(CO[C@H](C)c1cc(C(F)(F)F)cc(C(F)(F)F)c1)c1ccccc1.O=C(O)C(F)(F)F [Example 11]	Good (purity reduced by <0.5% after placing for 7 days)	1010	990	910	920	1030	970	950	relatively stable in plasma	plasma concentration of rolapitant after metabolism of the compound of the examples ([3]; 0 min): 10 nM; plasma concentration of rolapitant after metabolism of the compound of the examples ([3]; 15 min): 0 nM; plasma concentration of rolapitant after metabolism of the compound of the examples ([3]; 30 min): 0 nM; plasma concentration of rolapitant after metabolism of the compound of the examples ([3]; 60 min): 10 nM; plasma concentration of rolapitant after metabolism of the compound of the examples ([3]; 90 min): 0 nM; plasma concentration of rolapitant after metabolism of the compound of the examples ([3]; 120 min): 0 nM; plasma concentration of rolapitant after metabolism of the compound of the examples ([3]; 180 min): 0 nM; Water solubility ([2]; PH = 3): 2.81 mg/mL(PH = 3) mg/ml
C[C@@H](OC[C@@]1(c2ccccc2)CC[C@]2(CCC(=O)N2)CN1C(=O)OCOC(=O)CN)c1cc(C(F)(F)F)cc(C(F)(F)F)c1 [Example 12]	Poor (purity reduced by >2.0% after placing for 7 days)									
C[C@@H](OC[C@@]1(c2ccccc2)CC[C@]2(CCC(=O)N2C(=O)OCC(=O)O)CN1)c1cc(C(F)(F)F)cc(C(F)(F)F)c1 [Example 6]	Good (purity reduced by <0.5% after placing for 7 days)	980	850	910	850	770	700	530	overall amount of metabolism in plasma is relatively small	solubility ([2]; phosphate buffer, PH = 3): 1120 µg/mL (≈ 1860 µM)
C[C@@H](OC[C@@]1(c2ccccc2)CC[C@]2(CCC(=O)N2COC(=O)N(C)C)CN1)c1cc(C(F)(F)F)cc(C(F)(F)F)c1 [Example 9]	Good (purity reduced by <0.5% after placing for 7 days)									solubility ([2]; phosphate buffer, PH = 3): < 100 µg/mL
CC(OC(=O)[C@@H](N)C(C)C)OC(=O)N1C[C@@]2(CCC(=O)N2)CC[C@@]1(CO[C@H](C)c1cc(C(F)(F)F)cc(C(F)(F)F)c1)c1ccccc1 (stereo partly shown) [Example 14]	Good (purity reduced by <0.5% after placing for 7 days)									solubility ([2]; phosphate buffer, PH = 4): 4500 µg/mL (≈ 6540 µM)
C[C@H](N)C(=O)OCOC(=O)N1C[C@@]2(CCC(=O)N2)CC[C@@]1(CO[C@H](C)c1cc(C(F)(F)F)cc(C(F)(F)F)c1)c1ccccc1 [Example 13]	Moderate (purity reduced by 0.5%~2.0% after placing for 7 days)									
